Test results: ChEMBL document CHEMBL2046421, “Study on anti-proliferative effect of benzoxathiole derivatives through inactivation of NF-κB in human cancer cells” (Bioorg Med Chem Lett, 2012)

Legend:
ACHN = assay: Antiproliferative activity against human ACHN cells by SRB assay; assay type: functional
NCI-H23 = assay: Antiproliferative activity against human NCI-H23 cells by SRB assay; assay type: functional
PC-3 = assay: Antiproliferative activity against human PC3 cells by SRB assay; assay type: functional
HCT-15 = assay: Antiproliferative activity against human HCT15 cells by SRB assay; assay type: functional
[1] = Inhibition of NFkappaB expressed in THP1 cells assessed as inhibition of LPS-induced SEAP activity incubated for 2 hrs prior to LPS-induction measured after 16 hrs by reporter gene assay; assay type: cell-based; conditions: THP-1
MDA-MB-231 = assay: Antiproliferative activity against human MDA-MB-231 cells by SRB assay; assay type: functional
NUGC-3 = assay: Antiproliferative activity against human NUGC3 cells by SRB assay; assay type: functional
[2] = Inhibition of NFkappaB expressed in RAW264.7 cells coexpressing NPT assessed as inhibition of LPS-induced SEAP activity incubated for 2 hrs prior to LPS-induction measured after 16 hrs by reporter gene assay; assay type: cell-based

CC1(C)CC(=O)c2s/c(=N/c3ccccc3)oc2C1
GI50 (ACHN): 8.98 µM | GI50 (NCI-H23): 7.08 µM | GI50 (PC-3): 7.4 µM | GI50 (HCT-15): 8.09 µM | IC50 [1]: 6.2 µM | GI50 (MDA-MB-231): 5.88 µM | GI50 (NUGC-3): 5460 nM | IC50 [2]: 6.2 µM

CC1CC(=O)c2s/c(=N/c3ccccc3)oc2C1 (stereo not drawn)
GI50 (ACHN): 2.98 µM | GI50 (NCI-H23): 2.72 µM | GI50 (PC-3): 2.63 µM | GI50 (HCT-15): 2.07 µM | IC50 [1]: 6.7 µM | GI50 (MDA-MB-231): 2.31 µM | GI50 (NUGC-3): 1890 nM | IC50 [2]: 6.7 µM

CC(C)C1CC(=O)c2s/c(=N/c3ccccc3)oc2C1 (stereo not drawn)
GI50 (ACHN): 3.08 µM | GI50 (NCI-H23): 2.28 µM | GI50 (PC-3): 2.19 µM | GI50 (HCT-15): 1.15 µM | IC50 [1]: 4.9 µM | GI50 (MDA-MB-231): 2.48 µM | GI50 (NUGC-3): 1220 nM | IC50 [2]: 4.9 µM

CC1(C)CC(=O)c2s/c(=N/C3CCCCC3)oc2C1
GI50 (ACHN): 11.3 µM | GI50 (NCI-H23): 12.5 µM | GI50 (PC-3): 12.7 µM | GI50 (HCT-15): 12.2 µM | IC50 [1]: 12.5 µM | GI50 (MDA-MB-231): 13.1 µM | GI50 (NUGC-3): 11500 nM | IC50 [2]: 12.5 µM

CC(C)C1CC(=O)c2s/c(=N/C3CCCCC3)oc2C1 (stereo not drawn)
GI50 (ACHN): 6.7 µM | GI50 (NCI-H23): 7.08 µM | GI50 (PC-3): 5.16 µM | GI50 (HCT-15): 3.53 µM | IC50 [1]: 13.1 µM | GI50 (MDA-MB-231): 5.9 µM | GI50 (NUGC-3): 2710 nM | IC50 [2]: 13.1 µM

CC1(C)CC(=O)c2s/c(=N/c3ccc(Cl)cc3)oc2C1
GI50 (ACHN): 9.81 µM | GI50 (NCI-H23): 11.6 µM | GI50 (PC-3): 4.26 µM | GI50 (HCT-15): 3.79 µM | IC50 [1]: 7.5 µM | GI50 (MDA-MB-231): 6.38 µM | GI50 (NUGC-3): 2940 nM | IC50 [2]: 7.5 µM

CC1CC(=O)c2s/c(=N/c3ccc(Cl)cc3)oc2C1 (stereo not drawn)
GI50 (ACHN): 12.3 µM | GI50 (NCI-H23): 13.5 µM | GI50 (PC-3): 16.4 µM | GI50 (HCT-15): 12.2 µM | IC50 [1]: 19.5 µM | GI50 (MDA-MB-231): 14.3 µM | GI50 (NUGC-3): 15900 nM | IC50 [2]: 19.5 µM

CC1(C)CC(=O)c2s/c(=N/c3ccc(F)cc3)oc2C1
GI50 (ACHN): 3.74 µM | GI50 (NCI-H23): 3.36 µM | GI50 (PC-3): 2.45 µM | GI50 (HCT-15): 2.39 µM | IC50 [1]: 10.6 µM | GI50 (MDA-MB-231): 3.2 µM | GI50 (NUGC-3): 1080 nM | IC50 [2]: 10.6 µM

CC(C)C1CC(=O)c2s/c(=N/c3ccc(F)cc3)oc2C1 (stereo not drawn)
GI50 (ACHN): 3.67 µM | GI50 (NCI-H23): 3.65 µM | GI50 (PC-3): 2.76 µM | GI50 (HCT-15): 2.99 µM | IC50 [1]: 7.9 µM | GI50 (MDA-MB-231): 2.69 µM | GI50 (NUGC-3): 670 nM | IC50 [2]: 7.9 µM

CC1(C)CC(=O)c2s/c(=N/c3c(Cl)cc(Cl)cc3Cl)oc2C1
GI50 (ACHN): > 30 µM | GI50 (NCI-H23): > 30 µM | GI50 (PC-3): > 30 µM | GI50 (HCT-15): > 30 µM | IC50 [1]: > 30 µM | GI50 (MDA-MB-231): > 30 µM | GI50 (NUGC-3): > 30000 nM | IC50 [2]: > 30 µM

CC1CC(=O)c2s/c(=N/c3c(Cl)cc(Cl)cc3Cl)oc2C1 (stereo not drawn)
GI50 (ACHN): > 30 µM | GI50 (NCI-H23): > 30 µM | GI50 (PC-3): > 30 µM | GI50 (HCT-15): > 30 µM | IC50 [1]: > 30 µM | GI50 (MDA-MB-231): > 30 µM | GI50 (NUGC-3): > 30000 nM | IC50 [2]: > 30 µM

CC(C)C1CC(=O)c2s/c(=N/c3c(Cl)cc(Cl)cc3Cl)oc2C1 (stereo not drawn)
GI50 (ACHN): > 30 µM | GI50 (NCI-H23): > 30 µM | GI50 (PC-3): > 30 µM | GI50 (HCT-15): > 30 µM | IC50 [1]: > 30 µM | GI50 (MDA-MB-231): > 30 µM | GI50 (NUGC-3): > 30000 nM | IC50 [2]: > 30 µM

CC1(C)CC(=O)c2o/c(=N/C3CCCCC3)oc2C1
GI50 (ACHN): > 30 µM | GI50 (NCI-H23): > 30 µM | GI50 (PC-3): > 30 µM | GI50 (HCT-15): > 30 µM | IC50 [1]: > 30 µM | GI50 (MDA-MB-231): > 30 µM | GI50 (NUGC-3): > 30000 nM | IC50 [2]: > 30 µM

CCCc1o/c(=N\c2ccccc2)sc1C(C)=O
GI50 (ACHN): > 30 µM | GI50 (NCI-H23): > 30 µM | GI50 (PC-3): > 30 µM | GI50 (HCT-15): > 30 µM | IC50 [1]: > 30 µM | GI50 (MDA-MB-231): > 30 µM | GI50 (NUGC-3): > 30000 nM | IC50 [2]: > 30 µM

COc1cccc2c1C(=O)c1c(O)c3c(c(O)c1C2=O)C[C@@](O)(C(=O)CO)C[C@@H]3O[C@H]1C[C@H](N)[C@H](O)[C@H](C)O1 [DOXORUBICIN]
GI50 (ACHN): 1.63 µM | GI50 (NCI-H23): 1.66 µM | GI50 (PC-3): 1.65 µM | GI50 (HCT-15): 1.34 µM | GI50 (MDA-MB-231): 1.79 µM | GI50 (NUGC-3): 1000 nM
